Laboratory results: US6365350B1, “Method of DNA sequencing” (The Institute of Physical and Chemical Research, priority 1997, dated 2002)
Entries after “also recorded” stand apart in the source; their conditions may differ.

What was measured:
[1] = biological target: T7 RNA polymerase (Escherichia phage T7, UniProt P00573); experiment: Incorporation rate of 3′-dNTP measured with radioactive [α-32P]3′-dNTPs; type: biochemical
Description: Further, incorporation rate of 3′-deoxyribonucleotides is different depending on the kind of RNA polymerase, and this should be considered for the selection of the combination. The incorporation rate of 3′-dNTP by T7 RNA polymerase was measured by using radioactive [α-^32p]3′-dNTPs.

[2] = tested on: plasmid vector pBluescriptKS(+) having T7 promoter; experiment: Sequencing reaction by the dye terminator method, n=1 terminators (Example 2); settings: four dye terminators n=1, 25 units polymerase, 37° C., 1 hour
Description: Sequencing reaction by the dye terminator method was performed utilizing the purified mutant T7 RNA polymerases F644Y and L665P/F667Y, and the wild type T7 RNA polymerase as follows for comparison.
More specifically, the reaction was performed in a total reaction volume of 10 μl containing a plasmid vector pBluescriptKS(+) having T7 promoter linealized by the reaction with a restriction endonuclease PvuII or ScaI as a template, 250 μM of R6G-3′-dATP(n=1), 25 μM of R110-3′-dGTP(n=1), 150 μM of XR-3′-dCTP(n=1), 50 μM of TMR-3′-dUTP(n=1), which were the dye terminators synthesized in the above Synthesis Examples 49, 52, 46 and 43 respectively, as derivatives of 3′-dNTP, 500 μM of GTP and UTP, 250 μM of ATP and CTP, 8 mM of MgCl2, 2 mM of spermidine-(HCl)3, 5 mM of DTT, 40 mM of Tris/HCl pH 8.0 (BRL, Gibco) and 25 units of wild type T7 RNA polymerase (BRL, Gibco or Nippon Gene) or the mutant T7 RNA polymerase F644Y at 37° C. for 1 hour. Then, to remove the unreacted dye terminators remained in the reaction product, the transcription product was purified by gel filtration using a Sephadex G-50 column (Pharmacia Biotech), and the purification product was evaporated to dryness using a centrifugal evaporator.
The dried reaction product was dissolved in 6 μl of formamide/EDTA/Blue dextran loading buffer according to the instruction manual Ver.1.0 of ABI PRISM 377 DNA Sequencing System available from Perkin-Elmer Japan, and 2 μl of the solution was analyzed by ABI 377 DNA Sequencer and an analysis program using denatured gel for sequencing analysis which contained 6 M urea/4% Long Ranger™ acrylamide solution (FMC).

[3] = tested on: 3′-dATP, 3′-dGTP, 3′-dCTP, 3′-dUTP and derivatives thereof; settings: for ability for incorporating 3′-dATP, 3′-dGTP, 3′-dCTP, 3′-dUTP and derivatives thereof: compared with wild type T7 RNA polymerase
Description: The T7 RNA polymerases introduced with mutations were purified, and their abilities of promoter sequence specific RNA synthesis and incorporation of ribonucleoside 5′-triphosphates including ATP, GTP, CTP, UTP and derivatives thereof, as well as 3′-DATP, 3′-dGTP, 3′-dCTP, 3′-dUTP and derivatives thereof were compared with those of wild type T7 RNA polymerase.
For two kinds of reaction mixture (with or without 3′-DATP, final concentration was 100 μM), the reaction was performed at 37° C. for 60 minutes. The whole reaction mixture was spotted on DE81 paper (Whatman), washed three times with phosphate buffer, and dried. The DE81 paper was placed into a scintillation vial, and radioactivity was measured using a scintillation counter (Beckman) for each reaction. Degree of inhibition of the [α-^32P]UTP incorporation was calculated by comparing the values obtained with and without 3′-dATP based on the measured radioactivity.

[4] = tested on: XR-3′dCTP(n=1); experiment: In vitro transcription with dye terminator XR-3′dCTP(n=1), sequence ladder (Example 1); type: biochemical; settings: for incorporation efficiency for 3′-dCTP derivatives: peak intensities of sequence ladder vs wild type, FIGS. 30 and 31
Description: In vitro transcription reaction was performed by, for example, a partially modified version of the method of Melton, D. A., [Nucleic Acids Res., 12:7035-7056 (1984)].

[5] = tested on: DNA containing T7 promoter; settings: in vitro, compared with wild type T7 RNA polymerase
Description: Subsequent steps for purification of enzyme should be performed at a temperature lower than room temperature, preferably 0-5° C. unless otherwise indicated. The E. coli cells were washed with 10 times relative to the cell weight of a washing buffer (20 mM Tris-HCl, pH 8.1, 130 mM NaCl, 2 mM EDTANa2 at 25° C.), centrifuged again (5,000×g, 4° C., 10 minutes), suspended in 10 times in volume of a sonication buffer [50 mM Tris-HCl, pH 8.1, 100 mM NaCl, 0.1 mM EDTANa2, 5 mM dithiothreitol (DTT), 0.1 mM benzamidine, 30 μg/ml phenylmethylsulfonyl fluoride (PMSF), 10 μg/ml bacitracin], and sonicated by using Sonifier 450 (Branson) at 80W for more than 15 minutes to destroy the cells and reduce the viscosity of the cells. Then, the cell suspension is centrifuged at 12,000×g and 4° C. for ten minutes to remove the cell debris. 10% streptomycin sulfate was slowly added dropwise to the resulting supernatant to a final concentration of 2.0% with stirring, and stirring was further continued for 30 minutes. The supernatant was centrifuged at 12,000×g and 4° C. for ten minutes to remove precipitates, and slowly added with ammonium sulfate powder with stirring to form precipitates. In this case, precipitates were first collected by 30% saturation of ammonium sulfate (30% ammonium sulfate precipitation), and the resulting supernatant was further added with ammonium sulfate to 60% saturation with stirring to form precipitates again (30-60% ammonium sulfate precipitation). The supernatant was added again with ammonium sulfate powder to 90% ammonium sulfate saturation, and stirred at 4° C. for 1 hour, and the precipitates were collected by centrifugation. […] The.30′60% ammonium sulfate fraction was suspended in a small amount of column buffer (20 mM KPO4, pH 7.7, 100 mM NaCl, 1 mM DTT, 30 μg/ml PMSF), and desalted by dialysis against 500 ml of the same buffer for 16hours. The dialysate was applied on a heparin-Sepharose column of 5 ml volume (Pharmacia Biotech). Subsequently, the column was washed with the same buffer until any material absorbing ultraviolet ray at 280 nm disappeared, and eluted with a linear gradient of 0.1 M to 0.64 M NaCl in the same buffer of about 40 times volume of the column volume. The eluent was collected in test tubes as fractions of a suitable volume, and immediately subjected to SDS-acrylamide gel electrophoresis for protein analysis to identify fractions containing proteins around a molecular weight considered to be of the objective T7 RNA polymerase. […] The fractions containing the protein were collected, and desalted by dialysis against about 1 liter of the column buffer (20 mM KPO4, pH 7.7, 100 mM NaCl, 1 mM DTT, 30 μg/ml PMSF) for 16 hours. The fractions desalted by dialysis were applied to a Q-Sepharose column (Pharmacia Biotech) of 5 ml volume that preliminarily equilibrated with the same buffer, and the column was washed with the same buffer until any material absorbing ultraviolet ray at 280 nm disappeared, and eluted with a linear gradient of 0.1 M to 0.64 M NaCl in the same buffer of about 40 times volume of the column volume. The eluent was collected in test tubes as fractions of a suitable volume, and immediately subjected to SDS-acrylamide gel electrophoresis for protein analysis to identify fractions containing proteins around a molecular weight considered to be of the objective T7 RNA polymerase. […] The fractions containing the protein were collected, dialyzed against 500 ml of storage buffer (50% glycerol, 20 mM KPO4, pH 7.7, 100 mM NaCl, 1 mM DTT, 30 μg/ml PMSF) for 16 hours, and stored at −20° C. until use. In vitro RNA synthesis activity and activity of the contaminated ribonuclease of this sample were examined.

[6] = tested on: 3′-dATP; experiment: Inhibition of [α-32P]UTP incorporation by 3′-dATP in transcription reaction (relative activity for 3′-dATP); type: biochemical; settings: relative value of inhibition degree of [α-32P]UTP incorporation by 100 μM 3′-dATP; wild type normalized to 1.000; 37° C., 60 minutes
[7] = biological target: T1, T7 RNA polymerase (Gibco BRL) (Escherichia phage T7, UniProt P00573); experiment: Examination of 3′-deoxyterminators, termination pattern (Reference Example 8); type: biochemical; settings: terminator 10 μM, 37° C., 30 minutes, FIGS. 42A and 42B
T1 construct: purchased Gibco BRL
T1 sequence (P00573 whole entry): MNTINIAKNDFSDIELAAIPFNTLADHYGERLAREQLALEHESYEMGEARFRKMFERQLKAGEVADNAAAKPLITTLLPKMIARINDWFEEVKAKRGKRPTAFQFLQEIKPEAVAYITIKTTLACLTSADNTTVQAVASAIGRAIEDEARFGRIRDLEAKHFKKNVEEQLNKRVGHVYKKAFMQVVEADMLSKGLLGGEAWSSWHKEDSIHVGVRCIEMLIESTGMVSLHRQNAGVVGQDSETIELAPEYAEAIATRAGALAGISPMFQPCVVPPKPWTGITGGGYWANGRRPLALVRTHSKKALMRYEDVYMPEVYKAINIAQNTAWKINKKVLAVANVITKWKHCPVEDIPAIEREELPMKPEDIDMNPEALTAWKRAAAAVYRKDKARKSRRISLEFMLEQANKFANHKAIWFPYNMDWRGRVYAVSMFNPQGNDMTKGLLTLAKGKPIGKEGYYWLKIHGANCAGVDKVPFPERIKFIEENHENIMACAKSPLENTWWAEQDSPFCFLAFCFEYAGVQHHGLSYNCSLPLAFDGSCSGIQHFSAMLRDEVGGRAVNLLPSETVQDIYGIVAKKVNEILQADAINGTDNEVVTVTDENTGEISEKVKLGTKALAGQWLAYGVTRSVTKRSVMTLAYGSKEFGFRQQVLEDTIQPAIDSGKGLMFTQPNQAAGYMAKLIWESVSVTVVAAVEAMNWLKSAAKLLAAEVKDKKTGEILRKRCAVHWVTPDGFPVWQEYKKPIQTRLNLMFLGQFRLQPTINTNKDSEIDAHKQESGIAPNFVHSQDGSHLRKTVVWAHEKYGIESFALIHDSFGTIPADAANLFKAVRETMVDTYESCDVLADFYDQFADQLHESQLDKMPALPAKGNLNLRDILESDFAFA
Description: PCR was performed by using the following materials (96° C. for one minute, 55° C. for 30 seconds, and 72° C. for one minute for one cycle, and 96° C. for 30 seconds, 55° C. for 30 seconds, 72° C. for one minute for 24 cycles), and the resulting PCR product (amplified DNA fragment of human thyroid stimulating hormone (TSH) β-subunit) was used as a template DNA.
Each material in a predetermined amount was added to a sample tube, filled up to a total volume of 10 μl with EXTaq buffer (Takara Shuzo), and used as a PCR mixture.
The template DNA (10 ng) was added to a sample tube containing each of the terminators, guanosine-5′-triphosphate (rGTP), uridine-5′-triphosphate (rUTP), adenosine-5′-triphosphate (rATP), and cytidine-5′-triphosphate (rCTP), MgCl2, spermidine-(HCl)3, dithiothreitol (DTT), Tris/HCl (pH 7.5), yeast inorganic pyrophosphatase (PPase) and T7 RNA polymerase in such amounts as their final concentrations should be as follows, filled up to a total amount of 10 μl with distilled water, and used as a sample.
After 30 minutes incubation of the sample at 37° C., the terminators not incorporated were removed by gel filtration using a Sephadex G25 column (Pharmacia), and the precipitates were collected by centrifugal separation. […] After cooling, 2 μl of the solution was applied to 4% sequencing gel, and electrophoresed on ABI377 fluorescence automatic sequencer (ABI). […]

[8] = 150 μM XR-3′dCTP(n=1), 25 units polymerase, 37° C., 1 hour

T7 RNA polymerase, sequence (P00573 whole entry): as above

Row | Compound | ability for incorporating 3′-dATP, 3′-dGTP, 3′-dCTP, 3′-dUTP and derivatives thereof [3] | RNA synthesis activity [5] | Relative activity of RNA polymerase for 3′-dATP [6] | further results
1 | O=c1ccn([C@@H]2O[C@H](COP(=O)(O)OP(=O)(O)OP(=O)(O)O)C[C@H]2O)c(=O)[nH]1 [3′-dUTP] |  |  |  | order of incorporation rate of 3′-dNTP by T7 RNA polymerase [1]: 3′-dGTP>3′-dATP, 3′-dUTP>3′-dCTP
2 | F644Y: mutant T7 RNA polymerase in which F (phenylalanine) residue 644 was replaced with Y (tyrosine) | marked improvement; also recorded: markedly improved ability | maintained sufficient RNA synthesis activity | 5.130 | peak intensity in comparison with the wild type T7 RNA polymerase [2]: higher peak intensity with less fluctuation; sequence reading [2]: sequence reading was possible; bias of incorporation observed in the wild type [3]: markedly reduced; sequence ladder length compared with that afforded by the wild type T7 RNA polymerase [4, 8]: 3 times; transcription product length confirmed [4, 8]: about 700 bases; incorporation efficiency for 3′-dCTP derivatives [4]: improved the incorporation efficiency
3 | Nc1nc2c(ncn2[C@@H]2O[C@H](COP(=O)(O)OP(=O)(O)OP(=O)(O)O)C[C@H]2O)c(=O)[nH]1 [3′-dGTP] |  |  |  | order of incorporation rate of 3′-dNTP by T7 RNA polymerase [1]: 3′-dGTP>3′-dATP, 3′-dUTP>3′-dCTP
4 | Y639F: Y639F mutant of T7 RNA polymerase, at a location corresponding to Y526 of T7 DNA polymerase, described in the literature [reference compound] | no improvement | maintained RNA synthesis activity | 0.930 | 
5 | F733Y: mutant T7 RNA polymerase in which F733 was replaced with Y | slightly improved ability | slightly decreased RNA synthesis activity | 1.075 | 
6 | F782Y: mutant T7 RNA polymerase in which F782 was replaced with Y | slightly improved ability | maintained RNA synthesis activity | 1.173 | 
7 | F646Y: mutant T7 RNA polymerase in which F646 was replaced with Y | no improvement | maintained RNA synthesis activity | 0.459 | 
8 | F644Y/L665P: mutant T7 RNA polymerase with mutations F644Y and L665P | marked improvement; also recorded: comparable to that of the F644Y mutant | maintained sufficient RNA synthesis activity | 5.130 | 
9 | TMR-labeled 3′-deoxyuridine-5′-triphosphate [TMR-Allyl-3′dUTP(n4)] |  |  |  | termination pattern / incorporation efficiency [7]: incorporated as efficiently as TMR-3′dUTP(n4)
10 | TMR-labeled 3′-deoxyuridine-5′-triphosphate [TMR-3′dUTP(n4)] |  |  |  | termination pattern / incorporation efficiency [7]: difference is not recognized
11 | Wild type: wild type T7 RNA polymerase, 883 amino acid residues [reference compound] |  | sufficient RNA synthesis activity | 1.000 | sequence reading [2]: almost impossible; also recorded: sequencing was not performed correctly
12 | Nc1ncnc2c1ncn2[C@@H]1O[C@H](COP(=O)(O)OP(=O)(O)OP(=O)(O)O)C[C@H]1O [3′-dATP] |  |  |  | order of incorporation rate of 3′-dNTP by T7 RNA polymerase [1]: 3′-dGTP>3′-dATP, 3′-dUTP>3′-dCTP
13 | L665P/F667Y: mutant T7 RNA polymerase with mutations L665P and F667Y; labelled F667Y in FIGS. 29, 31, 32 | marked improvement; also recorded: markedly improved ability | maintained sufficient RNA synthesis activity | 4.711 | peak intensity in comparison with the wild type T7 RNA polymerase [2]: higher peak intensity with less fluctuation; sequence reading [2]: sequence reading was possible; bias of incorporation observed in the wild type [3]: markedly reduced; incorporation efficiency for 3′-dCTP derivatives [4]: improved the incorporation efficiency
14 | Nc1ccn([C@@H]2O[C@H](COP(=O)(O)OP(=O)(O)OP(=O)(O)O)C[C@H]2O)c(=O)n1 [3′-dCTP] |  |  |  | order of incorporation rate of 3′-dNTP by T7 RNA polymerase [1]: 3′-dGTP>3′-dATP, 3′-dUTP>3′-dCTP
